The record followed here is patent publication US6437138B1, “3-pyridyloxymethyl heterocyclic ether compounds useful in controlling chemical synaptic transmission” (priority 1996, dated 2002).

Structures can show the parent of a compound that is named as a salt. Where two headings read alike, the source gives them in different places.

The target of data set [1] is neuronal nicotinic cholinergic channels in IMR-32 cells (Homo sapiens, UniProt P30926+P32297). The data set can be described thus: 86Rb+ efflux in IMR-32 cells (activation, or inhibition of efflux elicited by (S)-nicotine). The format is cell-based. As to conditions: for inhibition at 1 µM / Emax / inhibition at 10 µM: IMR-32; for Emax: read-out: IMR-32 maximal response; for inhibition at 10 µM: single dose 10 μM. The source says:
For the purpose of directly evaluating the ability of test compounds to functionally activate or inhibit certain subtypes of neuronal nicotinic cholinergic channels, an assay to determine ^86Rb^+Efflux in IMR-32 cells was employed (Protocol B below).
B. Protocols for the Determination of Functional Effects of Cholinerzic Channel Receptor Ligands on Synaptic Transmission
Cells of the IMR-32 human neuroblastoma clonal cell line (ATCC, Rockville, Md.) were maintained in a log phase of growth according to established procedures (Lukas, 1993). Experimental cells were seeded at a density of 500,000 cells/ml into a 24-well tissue culture dish. Plated cells were allowed to proliferate for at least 48 hours before loading with 2 μCi/ml of ^86Rb^+ (35 Ci/mmol) overnight at 37° C. The ^86Rb^+ efflux assays were performed according to previously published protocols (Lukas, R. J., J. Pharmacol. Exp. Ther., 265: 294-302, 1993) except serum-free Dulbecco's Modified Eagle's Medium was used during the ^86Rb^+ loading, rinsing, and agonist-induced efflux steps.
EC50 data and maximal responses (reported as percent relative to the response elicited by 100 μM (S)-nicotine) are shown for selected compounds of the invention. The inhibition data (given for a larger number of compounds) reflect inhibition of the efflux elicited by 100 μM (S)-nicotine for either a single dose (% inhibition at 1 μM or at 10 μM) or over a range of doses (IC50 of inhibition). […] This finding is in agreement with the results of others who have linked dopamine release, which is dependent upon the ion flux in synaptic transmission, to binding at nicotinic receptors (cf., for example, Lippiello and Caldwell, U.S. Pat. No. 5,242,935, issued Sep. 7, 1993; Caldwell and Lippiello, U.S. Pat. No. 5,248,690, issued Sep. 28, 1993; and Wonnacott et al., Prog. Brain Res., 79: 157-163 (1989)).

Data set [2] has as its target neuronal nicotinic cholinergic channel receptors (Rattus norvegicus, UniProt P09483+P12390). The note with it: read-out: Binding Ki. The protocol: A. Protocol For Determination of Nicotinic Cholinergic Channel Receptor Binding Potencies of Ligands
Binding of [^3H]-cytisine ([^3H]-CYT) to nicotinic receptors was accomplished using crude synaptic membrane preparations from whole rat brain (Pabreza et al., Molecular Pharmacol, 1990, 39:9). Washed membranes were stored at −80° C. prior to use. Frozen aliquots were slowly thawed and resuspended in 20 volumes of buffer (containing: 120 mM NaCl, 5 mM KCl, 2 mM MgCl2, 2 mM CaCl2 and 50 mM Tris-Cl, pH 7.4 @ 4° C.). After centrifuging at 20,000×g for 15 minutes, the pellets were resuspended in 30 volumes of buffer. Homogenate (containing 125-150 μg protein) was added to triplicate tubes containing concentrations of test compound and [^3H]-CYT (1.25 nM) in a final volume of 500 μL. Samples were incubated for 60 minutes at 4° C., then rapidly filtered through Whatman GF/B filters presoaked in 0.5% polyethyleneimine using 3×4 mL of ice-cold buffer. The filters are counted in 4 mL of Ecolume® (ICN). Nonspecific binding was determined in the presence of […] (−)-nicotine and values were expressed as a percentage of total binding.

The mark [3] stands for this setting: 86Rb+ efflux, percent relative to the response elicited by 100 μM (S)-nicotine.
The mark [4] stands for this setting: displacement of [3H]-cytisine (1.25 nM), whole rat brain membranes, Ki from IC50 by Cheng and Prusoff correction.
[5] abbreviates: inhibition of the efflux elicited by 100 μM (S)-nicotine, single dose 1 μM.
[6] abbreviates: inhibition of the efflux elicited by 100 μM (S)-nicotine.

Sequence of neuronal nicotinic cholinergic channel receptors (P09483 31-630): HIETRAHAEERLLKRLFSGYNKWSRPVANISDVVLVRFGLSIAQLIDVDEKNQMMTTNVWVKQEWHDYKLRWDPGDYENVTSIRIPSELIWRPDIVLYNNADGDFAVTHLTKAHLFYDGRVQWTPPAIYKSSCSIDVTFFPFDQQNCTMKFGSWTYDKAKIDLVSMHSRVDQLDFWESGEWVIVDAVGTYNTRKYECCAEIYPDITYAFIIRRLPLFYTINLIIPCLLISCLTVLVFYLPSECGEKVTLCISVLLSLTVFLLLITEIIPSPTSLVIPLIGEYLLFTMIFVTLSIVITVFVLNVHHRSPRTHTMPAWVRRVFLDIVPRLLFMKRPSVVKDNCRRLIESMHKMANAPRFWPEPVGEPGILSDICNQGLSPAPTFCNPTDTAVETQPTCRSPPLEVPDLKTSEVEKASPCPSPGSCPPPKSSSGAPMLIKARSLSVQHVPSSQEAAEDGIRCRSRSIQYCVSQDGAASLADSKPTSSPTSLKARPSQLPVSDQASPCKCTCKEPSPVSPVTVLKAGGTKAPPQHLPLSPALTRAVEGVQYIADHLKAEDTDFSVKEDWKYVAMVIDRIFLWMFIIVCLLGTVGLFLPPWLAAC
Sequence of neuronal nicotinic cholinergic channel receptors (P12390 25-500): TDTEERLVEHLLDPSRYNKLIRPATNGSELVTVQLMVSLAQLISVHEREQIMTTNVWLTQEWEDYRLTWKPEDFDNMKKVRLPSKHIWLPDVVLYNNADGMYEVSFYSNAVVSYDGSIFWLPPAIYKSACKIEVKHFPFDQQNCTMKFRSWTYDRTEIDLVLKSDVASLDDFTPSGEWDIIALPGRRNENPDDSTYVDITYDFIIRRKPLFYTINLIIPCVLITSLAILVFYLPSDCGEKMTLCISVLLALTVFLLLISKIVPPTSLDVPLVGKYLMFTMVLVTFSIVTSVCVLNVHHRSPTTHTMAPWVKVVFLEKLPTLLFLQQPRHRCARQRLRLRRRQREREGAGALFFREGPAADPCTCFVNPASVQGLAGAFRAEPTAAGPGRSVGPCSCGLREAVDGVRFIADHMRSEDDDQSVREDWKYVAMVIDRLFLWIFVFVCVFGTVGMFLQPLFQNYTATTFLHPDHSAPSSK

One may read the EC50 as the concentration at which the effect is half-maximal. A lower EC50 goes with higher potency in that assay. As a reminder, the Ki is the dissociation constant of the complex between target and ligand, obtained from inhibition or displacement. With “5-(5,5-Dimethyl-1,3-hexadienyl)-6-chloro-3-(2-(R)-pyrrolidinylmethoxy)pyridine Citric Acid Salt [Example 55]”, in data set [1] (86Rb+ efflux, activation), the EC50 was more than 10000 µM. The molecule further gave an IMR-32 maximal response in data set [1] (setting [3]) of 24.5%. Further, in data set [2] (setting [4]), the Ki was found to be 0.0046 µM.
As for “5-Hexenyl-3-(1-methyl-2-(S)-pyrrolidinylmethoxy)pyridine Dihydrochloride [Example 12]”, the “% Inhibition @ 1 μM” value in data set [1] (setting [5]) was 25%. Also, in data set [2] (setting [4]), the Ki turned out to be 0.00032 µM.
The inhibition is the drop in the measured response relative to a control, in per cent. In the case of `CN1CCC[C@H]1COc1cncc(-c2cccc([N+](=O)[O-])c2)c1` [Example 1, 5-(3-Nitrophenyl)-3-(1-methyl-2-(S)-pyrrolidinylmethoxy)pyridine Dihydrochloride], the inhibition at 1 µM in data set [1] (setting [5]) came to 13%. Besides, in data set [2] (setting [4]), the Ki was determined as 0.00046 µM.
Taken in the same sequence, the figures for `CN1CCC[C@H]1COc1cncc(-c2cccc3ccccc23)c1` [Example 2, 5-(1-Naphthalenyl)-3-(1-methyl-2-(S)-pyrrolidinylmethoxy)pyridine Dihydrochloride] were 47% and 0.0042 µM.
Taken in the same sequence, the figures for `COc1ccc(-c2cncc(OC[C@@H]3CCCN3C)c2)cc1` [Example 3, 5-(4-Methoxyphenyl)-3-(1-methyl-2-(S)-pyrrolidinylmethoxy)pyridine Dihydrochloride] were 39% and 0.00032 µM.
Regarding `CN1CCC[C@H]1COc1cncc(-c2ccco2)c1` [Example 5, 5-(2-Furanyl-3-(1-methyl-2-(S)-pyrrolidinylmethoxy)pyridine Dihydrochloride], in data set [1] (setting [5]), at 1 µM the inhibition was 27%. Moreover, the Ki in data set [2] (setting [4]) came to 0.00019 µM.
On the same counts, the results for `CN1CCC[C@H]1COc1cncc(-c2cccs2)c1` [Example 6, 5-(2-Thienyyl)-3-(1-methyl-2-(S)-pyrrolidinylmethoxy)pyridine Dihydrochloride] are 28% and 0.00031 µM.
Usually melting point stands for the temperature of the solid-liquid transition. `CN1CCC[C@H]1COc1cncc(-c2cccnc2)c1.Cl.Cl` [Example 7, 5-(3-Pyridyl)-3-(1-methyl-2-(S)-pyrrolidinylmethoxy)pyridine Dihydrochloride] returned a melting point of 155 to 160 °C. In data set [2] (setting [4]), the Ki stood at 0.00027 µM.
`CN1CCC[C@H]1COc1cnc(Cl)c(Br)c1.Cl.Cl` [Example 24, 5-Bromo-6-chloro-3-(1-methyl-2-(S)-pyrrolidinylmethoxy)pyridine Dihydrochloride] showed a melting point of 189 to 191 °C. Further, in data set [1] (setting [5]), the inhibition at 1 µM was 17%.
`CN1CCC[C@H]1COc1cncc(-c2cncnc2)c1.Cl.Cl` [Example 25, 5-(5-Pyrimidinyl)-3-(1-methyl-2-(S)-pyrrolidinylmethoxy)pyridine Dihydrochloride] came in with a melting point of 205 to 220 °C. Moreover, in data set [1] (setting [3]), the Emax came out at 4.5%.
The molecule `CN1CCC[C@H]1COc1cnc(Cl)c(-c2ccccc2)c1.Cl.Cl` [Example 26, 5-Phenyl-6-chloro-3-(1-methyl-2-(S)-pyrrolidinylmethoxy)pyridine Dihydrochloride] had a melting point of 180 to 183 °C. Testing at 1 µM in data set [1] (setting [5]) gave an inhibition of 47%.
Consider `CN1CCC[C@H]1COc1cncc(C=CC=CC(C)(C)C)c1.Cl.Cl` [Example 30, 5-(5,5-Dimethyl-1,3-hexadienyl)-3-(1-methyl-2-(S)-pyrrolidinylmethoxy)pyridine Dihydrochloride], for which the melting point was in the range of 148 to 150 °C. The molecule further registered an inhibition at 1 µM in data set [1] (setting [5]) of 21%. In addition, 10 µM produced 90% inhibition in data set [1] (setting [6]).
The molecule `Cl.Cl.Clc1ncc(OC[C@@H]2CCCN2)cc1C=Cc1ccncc1` [Example 33, 5-(2-(4-Pyridinyl)ethenyl)-6-chloro-3-(2-(S)-pyrrolidinylmethoxy)pyridine Dihydrochloride] registered a melting point of 235 to 240 °C. Also, in data set [1] (setting [3]), the Emax came out at 47%.
Take `Cc1ccc(C#Cc2cncc(OC[C@@H]3CCCN3C)c2)cc1.Cl.Cl` [Example 48, 5-(2-(4-Methylphenyl)ethynyl)-3-(1-methyl-2-(S)-pyrrolidinylmethoxy)pyridine Dihydrochloride]: the melting point fell in the range of 197 to 199 °C. Besides, in data set [1] (setting [5]), 1 µM produced 40% inhibition.
On the same counts, the results for `Cl.Cl.c1ccc(-c2cncc(OC[C@@H]3CCCN3)c2)cc1` [Example 51, 5-Phenyl-3-(2-(S)-pyrrolidinylmethoxy)pyridine Dihydrochloride] are 134 to 136 °C and 42%.
In turn, `Cl.Cl.c1ccc(-c2cncc(OC[C@H]3CCCN3)c2)cc1` [Example 52, 5-Phenyl-3-(2-(R)-pyrrolidinylmethoxy)pyridine Dihydrochloride] showed a melting point of 129 to 131 °C. This molecule came in with an inhibition at 1 µM in data set [1] (setting [5]) of 22%. For the same molecule, the inhibition at 10 µM in data set [1] (setting [6]) worked out at 88%.
As to `CN1CCC[C@@H]1COc1cncc(-c2ccccc2)c1.Cl.Cl` [Example 53, 5-Phenyl-3-(1-methyl-2-(R)-pyrrolidinylmethoxy)pyridine Dihydrochloride], the melting point is 89 to 90 °C. Also, in data set [1] (setting [5]), the inhibition at 1 µM was found to be 35%. In addition, 10 µM produced 100% inhibition in data set [1] (setting [6]).
The molecule `CN1CC[C@H]1COc1cncc(-c2ccccc2)c1.Cl.Cl` [Example 57, 5-Phenyl-3-(1-methyl-2-(S)-azetidinylmethoxy)pyridine Dihydrochloride] yielded a melting point of 120 to 122 °C. In data set [1] (setting [5]), this molecule came in with an inhibition at 1 µM of 21%.
Consider `Cl.Cl.Clc1ncc(OC[C@@H]2CCCN2)cc1-c1ccccc1` [Example 84, 5-Phenyl-6-chloro-3-(2-(S)-pyrrolidinylmethoxy)pyridine Dihydrochloride], for which the melting point lay in the range of 75 to 80 °C. In addition, in data set [1] (setting [3]), the Emax turned out to be 37%.
Take `Cl.Cl.Cl.c1cc(CCc2cncc(OC[C@H]3CCCN3)c2)ccn1` [Example 87, 5-(2-(4-Pyridinyl)ethyl)-3-(2-(R)-pyrrolidinylmethoxy)pyridine Trihydrochloride]: the melting point lay in the range of 178 to 180 °C. Also, in data set [1] (setting [3]), the Emax was found to be 40%.
In turn, `CN1CCC[C@H]1COc1cncc(-c2ccccc2)c1.Cl.Cl` [Example 90, 5-Phenyl-3-(1-methyl-2-(S)-pyrrolidinylmethoxy)pyridine Dihydrochloride] registered a melting point of 88 to 90 °C. Besides, in data set [2] (setting [4]), the Ki amounted to 0.000111 µM.
For `CN1CC[C@@H]1COc1cncc(-c2ccsc2)c1` [Example 91, 5-(3-Thienyl)-3-(1-methyl-2-(R)-azetdinylmethoxy)pyridine Dihydrochloride], the Ki in data set [2] is 0.00184 µM.
As for `C=Cc1cc(OC[C@@H]2CCN2)cnc1Cl.Cl.Cl` [Example 165, 3-(2-(S)-Azetidinylmethoxy)-6-chloro-5-ethenylpyridine Dihydrochloride], the melting point was 121 °C (dec.). In addition, the Emax in data set [1] (setting [3]) worked out at 127%.
Turning to `CN1CCC[C@@H]1COc1cnc(Cl)c(-c2cncnc2)c1` [Example 180, 6-Chloro-3-(1-methyl-2-(R)-pyrrolidinylmethoxy)-5-pyrimidinylpyridine Hydrochloride], in data set [2] (setting [4]), the Ki came to 0.0048 µM.
Turning to `C=Cc1cc(OC[C@@H]2CCCN2)cnc1Cl.Cl` [Example 191, 6-Chloro-5-ethenyl-3-(2-(S)-pyrrolidinylmethoxy)pyridine Hydrochloride], the melting point is 195 to 197 °C. Moreover, in data set [1] (setting [3]), the Emax worked out at 106%.
On the same counts, the results for `C=Cc1cc(OC[C@@H]2CCCN2)cnc1C=C.Cl` [Example 193, 5,6-Diethenyl-3-(2-(S)-pyrrolidinylmethoxy)pyridine Hydrochloride] are 186 to 188 °C and 9.5%.
